For 49 compounds, IC50 results are on record in USRE47221E1, “Tricyclic compounds” (AbbVie Inc., priority 2009, dated 2019).

A word on the IC50: it is the concentration needed to halve the response being measured.

Where only a bound is given, the exact number is not on record here.

The target in the assay is T1, Jak3 (Homo sapiens, UniProt P52333).
T1 construct: Jak3 enzyme (aa 811-1103); expressed in SF9 cells as a GST fusion; GST; made in house; host or cells: SF9 insect cells
T1 sequence (P52333 811-1103): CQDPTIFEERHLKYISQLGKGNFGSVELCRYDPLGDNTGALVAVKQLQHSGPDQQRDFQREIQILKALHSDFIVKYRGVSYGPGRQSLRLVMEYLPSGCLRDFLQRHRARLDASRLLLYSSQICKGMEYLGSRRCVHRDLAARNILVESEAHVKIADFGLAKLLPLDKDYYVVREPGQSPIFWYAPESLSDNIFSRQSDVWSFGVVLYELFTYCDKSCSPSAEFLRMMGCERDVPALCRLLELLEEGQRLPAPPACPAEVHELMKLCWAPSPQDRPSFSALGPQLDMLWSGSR
In words: Jak3 enzyme data for selected compounds. Format: biochemical.
For the compound `CC[C@@H]1C[C@H](NS(=O)(=O)C2CC2)C[C@@H]1c1nc(CCO)c2cnc3[nH]ccc3n12` [Example #18, N-((1S,3R,4S)-3-ethyl-4-(3-(2-hydroxyethyl)-6H-imidazo[1,5-a]pyrrolo[2,3-e]pyrazin-1-yl)cyclopentyl)cyclopropanesulfonamide], the IC50 fell in the range of 100 to 1000 nM. As for `CC[C@@H]1C[C@H](NS(=O)(=O)N2CCC(F)(F)C2)C[C@@H]1c1nnc2cnc3[nH]ccc3n12` [D.1.13], the figure is 100 to 1000 nM; as for `CS(=O)(=O)Nc1ccc(-c2nc(C3CCCCC3)n3c2cnc2[nH]ccc23)cc1` [UUU.1.1], < 100 nM; as for `C[C@@H]1CCN(C(=O)N2CCC(F)(F)C2)C[C@@H]1c1ncc2cnc3[nH]ccc3n12` [J.2.8], < 100 nM.

On to `CC[C@@H]1C[C@@H](Oc2ccc(C#N)cc2F)C[C@@H]1c1nnc2cnc3[nH]ccc3n12` (single isomer, unassigned) [AA.1.104, 4-(3-ethyl-4-(6H-pyrrolo[2,3-e][1,2,4]triazolo[4,3-a]pyrazin-1-yl)cyclopentyloxy)-3-fluorobenzonitrile], for which the IC50 is < 100 nM. As for `C[C@@H]1CCN(C(=O)CCC#N)C[C@@H]1c1ncc2cnc3[nH]ccc3n12` [H.1.25], the figure is < 100 nM; as for `CC[C@@H]1C[C@@H](OCc2cccc(C#N)c2)C[C@@H]1c1nnc2cnc3[nH]ccc3n12` (single isomer, unassigned) [AA.1.99, 3-((3-ethyl-4-(6H-pyrrolo[2,3-e][1,2,4]triazolo[4,3-a]pyrazin-1-yl)cyclopentyloxy)methyl)benzonitrile], 100 to 1000 nM; as for `C[C@@H]1CCN(C(=O)N2CCCCCC2)C[C@@H]1c1ncc2cnc3[nH]ccc3n12` [J.2.14], < 100 nM. On to `O=S(=O)(NC12CCC(c3nnc4cnc5[nH]ccc5n34)(CC1)CC2)C1CCC1` [D.1.39], for which the IC50 fell in the range of 100 to 1000 nM.

The compound `CC[C@@H]1C[C@@H](Oc2cnc(C#N)cn2)C[C@@H]1c1nnc2cnc3[nH]ccc3n12` (single isomer, unassigned) [AA.1.33, 5-(3-ethyl-4-(6H-pyrrolo[2,3-e][1,2,4]triazolo[4,3-a]pyrazin-1-yl)cyclopentyloxy)pyrazine-2-carbonitrile] registered an IC50 of 100 to 1000 nM. The figure for `CC1(C)CCN(C(=O)N2CCC[C@@H](c3ncc4cnc5[nH]ccc5n34)C2)CC1` [J.3.10] is < 100 nM; for `O=C(N1CCC[C@@H](c2cnc3cnc4[nH]ccc4n23)C1)N1CCC[C@@H]1C(F)(F)F` [AA.1.10, (3-(3H-imidazo[1,2-a]pyrrolo[2,3-e]pyrazin-8-yl)piperidin-1-yl)((R)-2-(trifluoromethyl)pyrrolidin-1-yl)methanone] it is 100 to 1000 nM; for `C[C@@H]1CCN(C(=O)N2CC[C@H](F)C2)C[C@@H]1c1ncc2cnc3[nH]ccc3n12` [J.2.12] it is < 100 nM. As for `CC[C@@H]1C[C@H](NS(=O)(=O)NCCO)C[C@@H]1c1nnc2cnc3[nH]ccc3n12` [D.1.56], the figure is 100 to 1000 nM; as for `CC[C@@H]1C[C@H](OCc2ccc(OC)cc2)C[C@H]1c1nnc2cnc3[nH]ccc3n12` (racemic) [D.1.38], 100 to 1000 nM; as for `C[C@@H]1CCN(c2cnc(C#N)cn2)C[C@@H]1c1ncc2cnc3[nH]ccc3n12` (racemic) [L.1.2], < 100 nM. The figure for `CC[C@@H]1C[C@H](Nc2ncc(C#N)s2)C[C@@H]1c1nnc2cnc3[nH]ccc3n12` [Example #8, 2-((1S,3R,4S)-3-ethyl-4-(6H-pyrrolo[2,3-e][1,2,4]triazolo[4,3-a]pyrazin-1-yl)cyclopentylamino)thiazole-5-carbonitrile] is 100 to 1000 nM; for `N#CC1CN(C(=O)N2CCC[C@@H](c3ncc4cnc5[nH]ccc5n34)C2)C1` [J.3.4] it is < 100 nM.

Turning to `C[C@@H]1CCN(c2ncc(C#N)s2)C[C@@H]1c1ncc2cnc3[nH]ccc3n12` (racemic) [L.1.4], the IC50 was < 100 nM.

Turning to `C[C@@H]1C[C@H](NS(=O)(=O)C2CC2)C[C@@H]1c1cnc2cnc3[nH]ccc3n12` (single isomer, unassigned) [Example #24], the IC50 was < 100 nM. The figure for `O=C(N1CCC[C@@H](c2ncc3cnc4[nH]ccc4n23)C1)N1CCCC(F)(F)C1` [J.3.7] is 100 to 1000 nM. The figure for `CC[C@@H]1C[C@H](N(CCO)S(=O)(=O)C2CC2)C[C@@H]1c1nnc2cnc3[nH]ccc3n12` [D.1.31] is < 100 nM. As for `C[C@@H]1C[C@H](NS(=O)(=O)CCC(F)(F)F)C[C@@H]1c1ncc2cnc3[nH]ccc3n12` [D.1.79], the figure is < 100 nM; as for `CC1(S(=O)(=O)NC23CCC(c4nnc5cnc6[nH]ccc6n45)(CC2)CC3)CC1` [D.1.33], > 1000 nM. With `C[C@@H]1C[C@H](NS(=O)(=O)NCCO)C[C@@H]1c1cnc2cnc3[nH]ccc3n12` (single isomer, unassigned) [AA.1.81], the IC50 was < 100 nM.

On to `CC[C@@H]1C[C@H](NS(=O)(=O)C2CC2)C[C@@H]1c1nc(CO)c2cnc3[nH]ccc3n12` [Example #17, N-((1S,3R,4S)-3-ethyl-4-(3-(hydroxymethyl)-6H-imidazo[1,5-a]pyrrolo[2,3-e]pyrazin-1-yl)cyclopentyl)cyclopropanesulfonamide], for which the IC50 is < 100 nM. Turning to `C[C@@H]1C[C@H](NS(=O)(=O)N2CC(F)(F)C2)C[C@@H]1c1ncc2cnc3[nH]ccc3n12` [D.1.78], the half-inhibitory concentration (IC50) is < 100 nM.

For `O=C(C1CC(F)(F)C1)N1CCC[C@@H](c2cnc3cnc4[nH]ccc4n23)C1` [Example #3, (R)-(3-(3H-imidazo[1,2-a]pyrrolo[2,3-e]pyrazin-8-yl)piperidin-1-yl)(3,3-difluorocyclobutyl)methanone], the concentration for half-maximal inhibition (IC50) was < 100 nM. Turning to `CC[C@H]1C[C@@H](Oc2cnc(C#N)cn2)C[C@@H]1c1nnc2cnc3[nH]ccc3n12` (single isomer, unassigned) [AA.1.97, 5-(3-ethyl-4-(6H-pyrrolo[2,3-e][1,2,4]triazolo[4,3-a]pyrazin-1-yl)cyclopentyloxy)pyrazine-2-carbonitrile], the IC50 was > 1000 nM.

For the compound `CC[C@@H]1C[C@H](NS(=O)(=O)CCn2cncn2)C[C@@H]1c1nnc2cnc3[nH]ccc3n12` [YY.1.2], the IC50 was > 1000 nM.

Take `O=S(=O)(NC[C@H]1CC[C@H](c2ncc3cnc4[nH]ccc4n23)C1)C1CC1` (single isomer, unassigned) [AA.1.60]: the IC50 lay within 100 to 1000 nM. For the compound `C[C@@H]1C[C@H](Nc2cccc(C#N)c2)C[C@@H]1c1nnc2cnc3[nH]ccc3n12` [D.2.6], the IC50 was > 1000 nM. `CC[C@@H]1C[C@H](NS(=O)(=O)C2CC2)C[C@@H]1c1nc(CCCO)c2cnc3[nH]ccc3n12` [Example #14, N-((1S,3R,4S)-3-ethyl-4-(3-(3-hydroxypropyl)-6H-imidazo[1,5-a]pyrrolo[2,3-e]pyrazin-1-yl)cyclopentyl)cyclopropanesulfonamide]: the IC50 was < 100 nM. As for `CC[C@@H]1C[C@@H](Oc2ccc(C#N)cc2)C[C@@H]1c1ncc2cnc3[nH]ccc3n12` [D.2.24], the figure is < 100 nM; as for `CC[C@@H]1C[C@H](NS(=O)(=O)C2CC2)C[C@@H]1c1nnc2cnc3[nH]cc(I)c3n12` [Preparation #GGG.1, N-((1S,3R,4S)-3-ethyl-4-(8-iodo-6H-pyrrolo[2,3-e][1,2,4]triazolo[4,3-a]pyrazin-1-yl)cyclopentyl)cyclopropanesulfonamide], 100 to 1000 nM. As for `O=C(N1CCC(F)(F)CC1)N1CCC[C@@H](c2ncc3cnc4[nH]ccc4n23)C1` [Example #6, (R)-(3-(6H-imidazo[1,5-a]pyrrolo[2,3-e]pyrazin-1-yl)piperidin-1-yl)(4,4-difluoropiperidin-1-yl)methanone], the figure is 100 to 1000 nM; as for `C[C@@H]1CCN(C(=O)N2CCOCC2)C[C@@H]1c1ncc2cnc3[nH]ccc3n12` [I.1.2], < 100 nM; as for `CC[C@@H]1C[C@H](NS(=O)(=O)C2CC2)CN1c1cnc2cnc3[nH]ccc3n12` [D.1.25], < 100 nM. As for `CC[C@@H]1C[C@H](N(CO)S(=O)(=O)C2CC2)C[C@@H]1c1nnc2cnc3[nH]cc(C)c3n12` [LL.1.2], the IC50 is > 1000 nM. The figure for `CC[C@@H]1C[C@H](NS(=O)(=O)C2CC2)C[C@@H]1n1cnc2cnc3[nH]ccc3c21` (single isomer, unassigned) [Example #23] is < 100 nM; for `C[C@@H]1CCN(S(=O)(=O)N2CCCC2)C[C@@H]1c1ncc2cnc3[nH]ccc3n12` [DD.1.1] it is < 100 nM; for `N#Cc1ccc(OCC23C4C5C2C2C3C4C52c2ncc3cnc4[nH]ccc4n23)cc1` (stereo not shown) [D.1.49] it is 100 to 1000 nM. As for `O=S(=O)(CCC(F)(F)F)NC[C@H]1CC[C@@H](c2ncc3cnc4[nH]ccc4n23)C1` (single isomer, unassigned) [AA.1.62], the figure is 100 to 1000 nM. As to `C[C@H]1C[C@H](Oc2ccc(C#N)cc2)C[C@H]1c1nnc2cnc3[nH]ccc3n12` (single isomer, unassigned) [AA.1.93, 4-(3-methyl-4-(6H-pyrrolo[2,3-e][1,2,4]triazolo[4,3-a]pyrazin-1-yl)cyclopentyloxy)benzonitril], the IC50 is > 1000 nM. As for `O=C(N1CCC[C@@H](c2ncc3cnc4[nH]ccc4n23)C1)N1CCC(F)(F)C1` [J.3.2], the figure is < 100 nM.

As to `CC[C@H]1C[C@@H](NS(=O)(=O)C2CC2)C[C@]1(F)c1nnc2cnc3[nH]ccc3n12` (single isomer, unassigned) [AA.1.44, N-(cis-4-ethyl-3-fluoro-3-(6H-pyrrolo[2,3-e][1,2,4]triazolo[4,3-a]pyrazin-1-yl)cyclopentyl)cyclo-propanesulfonamide], the IC50 lay in the range of 100 to 1000 nM. The figure for `CC[C@@H]1C[C@H](OC2CCOCC2)C[C@@H]1c1nnc2cnc3[nH]ccc3n12` [Example #22, 1-((1S,2R,4S)-2-ethyl-4-(tetrahydro-2H-pyran-4-yloxy)cyclopentyl)-6H-pyrrolo[2,3-e][1,2,4]triazolo[4,3-a]pyrazine] is > 1000 nM; for `CC[C@@H]1C[C@H](NS(=O)(=O)CCC(F)(F)F)C[C@@H]1c1cnc2cnc3[nH]ccc3n12` (single isomer, unassigned) [AA.1.77, N-(3-ethyl-4-(3H-imidazo[1,2-a]pyrrolo[2,3-e]pyrazin-8-yl)cyclopentyl)-3,3,3-trifluoropropane-1-sulfonamide] it is < 100 nM. The figure for `O=C(N1CCC(Cl)CC1)N1CCC[C@@H](c2ncc3cnc4[nH]ccc4n23)C1` [J.3.11] is < 100 nM.
